Laboratory results as given in patent publication US20040063699A1, “Gpr14 antagonist” (priority 2000, published 2004).
Structures can show the parent of a compound that is named as a salt.

Target: T1, human GPR14 (Homo sapiens, UniProt Q9UKP6)
T1 construct: expressed in transfected cells
T1 sequence (Q9UKP6 1-389): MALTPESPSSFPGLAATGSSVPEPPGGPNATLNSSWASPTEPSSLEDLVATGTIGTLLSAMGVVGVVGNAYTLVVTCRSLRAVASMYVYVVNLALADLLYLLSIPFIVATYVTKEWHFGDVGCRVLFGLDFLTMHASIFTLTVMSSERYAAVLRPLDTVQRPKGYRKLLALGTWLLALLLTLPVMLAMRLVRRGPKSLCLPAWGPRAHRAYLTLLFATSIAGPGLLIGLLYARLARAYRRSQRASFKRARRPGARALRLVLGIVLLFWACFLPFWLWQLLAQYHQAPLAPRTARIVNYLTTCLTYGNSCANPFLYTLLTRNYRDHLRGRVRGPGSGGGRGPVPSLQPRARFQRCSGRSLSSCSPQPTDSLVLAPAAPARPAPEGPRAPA
Assay: Inhibition of binding of [125I]-labeled human urotensin II to human GPR14-expressing CHO cell membrane fraction
Conditions: 25° C., 3 hours, read-out: Inhibitory concentration (concentration at which the compound showed 50% inhibition of human GPR14 binding activity)
Method: To 1×10^8 CHO/GPR14 cells were added 10 ml of homogenate buffer (10 mM NaHCO3, 5 mM EDTA, 0.5 mM PMSF, 1 μg/ml pepstatin, 4 μg/ml E64, 20 μg/ml leupeptin), and disrupted using Polytron (12,000 rpm, 1 minute). Cell debris solution was centrifuged at 1,000 g for 15 minutes to obtain a supernatant. The supernatant was then […] (in Beckman type 30 rotor, 30,000 rpm, 1 hour), and the resultant precipitant was collected as human GPR14-expressing CHO cell fraction.
Isotope-labeled human urotensin II to be used in experiments for testing inhibition of binding was prepared as described below. 5 μg of human urotensin II (available from Peptide Institute, Inc.) was dissolved in 25 μl of 0.4M sodium acetate (pH 5.6). To the solution was added 200 ng of lactoperoxidase (Wako Pure Chemical Industries, Ltd.) followed by 1 mCi [^125I]-sodium iodide (Amersham Pharmacia Biotech) and 200 ng of hydrogen peroxide (10 μl). The solution was left to stand at room temperature for 10 minutes, another 200 ng of hydrogen peroxide (10 μl) was added thereto and then the solution was left to stand for 10 minutes. The mixture was then purified by HPLC using TSKgel ODS-80Ts column (4.6 mm×25 cm, Toso Co., Ltd.) to obtain [^125I]-labeled human urotensin II.
Experiment for Testing the Ability of Test compound to Inhibit Binding of Urotensin II to GPR14 Using Human GPR14-Expressing Cell Fraction and Isotope-Labeled Urotensin II
Human GPR14-expressing CHO cell fraction was diluted in a membrane diluting buffer (20 mM phosphate buffer (pH7.3), 150 mM NaCl, 5 mM MgCl2, […], 0.05% CHAPS, 0.5 mM PMSF, 0.1 μg/ml Pepstatin, 20 μg/ml Leupeptin, 4 μg/ml E-64) to prepare a solution of cell membrane fraction (protein concentration: 3 μg/ml) for assay. […] Next, the filter was washed three times with membrane diluting buffer (0.2 ml), added with 20 μl of Microscinti 20 (Packard), and determined for radioactivity in Topcount (Packard). Specific-binding is calculated by subtracting non-specific binding from the total binding. […]

Row | IC50 [nM] | Compound
1 | 1.7 | O=C(NCCN1CCN(C(c2ccc(F)cc2)c2ccc(F)cc2)CC1)c1ccc2c(c1)CCNCC2 [Example 84, N-(2-{4-[bis(4-fluorophenyl)methyl]piperazin-1-yl}ethyl)-2,3,4,5-tetrahydro-1H-3-benzazepine-7-carboxamide trihydrochloride]
2 | 3.2 | O=C(CCCN1CCN(C(c2ccc(F)cc2)c2ccc(F)cc2)CC1)c1ccc2c(c1)CCNCC2 [Example 6, 4-{4-[bis(4-fluorophenyl)methyl]-1-piperazinyl}-1-(2,3,4,5-tetrahydro-1H-3-benzazepin-7-yl)-1-butanone trihydrochloride]
3 | 8.6 | O=S(=O)(NCCN1CCN(Cc2ccccc2)CC1)c1ccc2c(c1)CCNCC2 [Example 75, N-[2-(4-benzyl-1-piperazinyl)ethyl]-2,3,4,5-tetrahydro-1H-3-benzazepine-7-sulfonamide trihydrochloride]
